Assays:
Format in all cases: cell-based
[1] = test system: Salmonella Typhimurium TA98; test: Ames test, plate incorporation method, TA98
Method: Salmonella Typhimurium TA97a, TA98, TA100, TA102, and TA1535 from MOLT OX, USA, were purchased from Shanghai Bioplus Biotech.
(§1) Rat liver S9 from Shanghai Bioplus Biotech. Co., Ltd.
(§2) The experiments were performed using the plate incorporation method.
(§3) Dose selection: The experiments were performed using 5 mg, 2.5 mg, 1.25 mg, 0.625 mg, 0.3125 mg, and 0.15625 mg per dish.
(§4) 0.1 ml of frozen bacterial solutions TA97a, TA98, TA100, TA102 and TA1535 were inoculated into the 10 ml nutrient broth mediums respectively, and cultured at 37° C. (100/min) for 10 h with shaking (100 times/min). 2.0 ml of top layer medium containing 0.5 mmol/L histidine −0.5 mmol/L biotin was dispensed into test tubes, sterilized by 0.103 MPa for 20 min, and kept in a water bath at 50° C. Then, 0.1 ml of the test substance solution, 0.5 ml of the S9 mixture (when metabolic activation was required) and 0.1 ml of the bacterial solution were added into each tube successively, mixed sufficiently, and poured into the bottom layer agar plates quickly. Then, the plates were turned to distribute even. After being placed horizontally for condensation and solidification, the plates were inverted and incubated in an incubator at 37° C. for 48 h, and the number of reverse mutation colonies per dish was counted. Three parallel plates of each dose were made, containing the spontaneous reverse mutation group, the solvent control group and the positive control group.
(§5) The data were expressed as means±standards deviation (x±s), and SPSS 19.0 was used for calculation of data analysis.
(§6) If the test substance tested by the above test strain is negative both with and without S9, then the test substance is determined to be mutagenic negative.

[2] = test system: Salmonella Typhimurium TA102; test: Ames test, plate incorporation method, TA102
Method: Salmonella Typhimurium TA97a, TA98, TA100, TA102, and TA1535 from MOLT OX, USA, were purchased from Shanghai Bioplus Biotech. Co., Ltd. The test was carried out using Salmonella typhimurium strains that were identified as meeting the requirements.
as §1, §2, §3
Test substance preparation: nitrosamine impurity compound P08 was prepared to a solution of 50 mg/ml with dimethyl-sulfoxide, and diluted with dimethyl-sulfoxide to give the solutions of 25 mg/ml, 12.5 mg/ml, 6.25 mg/ml, 3.125 mg/ml, and 1.5625 mg/ml successively.
as §4, §5, §6

Salmonella typhimurium = test: Ames test, overall result determination; conditions: in the presence and absence of metabolic activation system
Method: Whether nitrosamine impurity compound P08 is genotoxic (capable of mutagenicity or carcinogenesis) was detected.
as §6

O=NN1CC2CC(C1)c1cc3nccnc3cc12 [P08]
number of reverse mutation colonies per dish (x ± s) ([1]; TA98, +S9, 156.25 μg/dish): 33 ± 6 | number of reverse mutation colonies per dish (x ± s) ([1]; TA98, +S9, 312.5 μg/dish): 34 ± 1 | number of reverse mutation colonies per dish (x ± s) ([1]; TA98, +S9, 625 μg/dish): 35 ± 2 | number of reverse mutation colonies per dish (x ± s) ([1]; TA98, +S9, 1250 μg/dish): 41 ± 6 | number of reverse mutation colonies per dish (x ± s) ([1]; TA98, +S9, 2500 μg/dish): 59 ± 4 | number of reverse mutation colonies per dish (x ± s) ([1]; TA98, +S9, 5000 μg/dish): 53 ± 6 | number of colonies relative to that of the solvent control ([1]; TA98, adding S9, 2500 μg/dish): more than twice | number of reverse mutation colonies per dish (x ± s) ([1]; TA98, −S9, 156.25 μg/dish): 29 ± 2 | number of reverse mutation colonies per dish (x ± s) ([1]; TA98, −S9, 312.5 μg/dish): 27 ± 3 | number of reverse mutation colonies per dish (x ± s) ([1]; TA98, −S9, 625 μg/dish): 28 ± 2 | number of reverse mutation colonies per dish (x ± s) ([1]; TA98, −S9, 1250 μg/dish): 30 ± 3 | number of reverse mutation colonies per dish (x ± s) ([1]; TA98, −S9, 2500 μg/dish): 31 ± 3 | number of reverse mutation colonies per dish (x ± s) ([1]; TA98, −S9, 5000 μg/dish): 32 ± 2 | number of reverse mutation colonies per dish (x ± s) ([2]; TA102, +S9, 156.25 μg/dish): 249 ± 13 | number of reverse mutation colonies per dish (x ± s) ([2]; TA102, +S9, 312.5 μg/dish): 253 ± 24 | number of reverse mutation colonies per dish (x ± s) ([2]; TA102, +S9, 625 μg/dish): 296 ± 21 | number of reverse mutation colonies per dish (x ± s) ([2]; TA102, +S9, 1250 μg/dish): 272 ± 17 | number of reverse mutation colonies per dish (x ± s) ([2]; TA102, +S9, 2500 μg/dish): 283 ± 11 | number of reverse mutation colonies per dish (x ± s) ([2]; TA102, +S9, 5000 μg/dish): 320 ± 15 | number of reverse mutation colonies per dish (x ± s) ([2]; TA102, −S9, 156.25 μg/dish): 208 ± 13 | number of reverse mutation colonies per dish (x ± s) ([2]; TA102, −S9, 312.5 μg/dish): 237 ± 6 | number of reverse mutation colonies per dish (x ± s) ([2]; TA102, −S9, 625 μg/dish): 236 ± 20 | number of reverse mutation colonies per dish (x ± s) ([2]; TA102, −S9, 1250 μg/dish): 245 ± 4 | number of reverse mutation colonies per dish (x ± s) ([2]; TA102, −S9, 2500 μg/dish): 219 ± 11 | number of reverse mutation colonies per dish (x ± s) ([2]; TA102, −S9, 5000 μg/dish): 211 ± 8 | mutagenicity determination (Ames test) (Salmonella typhimurium): mutagenic positive

From patent US20240374609A1, “NITROSAMINE IMPURITY, VARENICLINE PHARMACEUTICAL COMPOSITION CAPABLE OF REDUCING GENERATION OF NITROSAMINE IMPURITIES AND PREPARATION AND USE THEREOF” (VIWIT PHARMACEUTICALCO., LTD., priority 2021, published 2024)
